Where a SMILES comes first, the peptide text is derived from it. [ ]: non-standard residue; d: D form.
Assay: Displacement of [125I]-ET-1 from Endothelin A receptor of rabbit renal artery vascular smooth muscle cells

IC50: 650 nM
SMILES: CC[C@H](C)[C@H](NC(=O)[C@H](CC(=O)O)NC(=O)[C@H](CCC(=O)O)NC(=O)[C@@H](Cc1ccccc1)NC(C)=O)C(=O)N[C@H](C(=O)N[C@@H](Cc1c[nH]c2ccccc12)C(=O)O)[C@@H](C)CC [(S)-4-((R)-2-Acetylamino-3-phenyl-propionylamino)-4-((S)-2-carboxy-1-{(S)-1-[(S)-(S)-1-((S)-1-carboxy-2-(S)-1H-indol-3-yl-ethylcarbamoyl)-2-methyl-butylcarbamoyl]-2-methyl-butylcarbamoyl}-ethylcarbamoyl)-butyric acid] (Ac-[dF]EDIIW-OH)
